Source: paper PMC6792352, “Limited Chemical Structural Diversity Found to Modulate Thyroid Hormone Receptor in the Tox21 Chemical Library” (Environmental Health Perspectives, 2019)
Counter-ions that a name gives are not always drawn.

Experiment: in vitro
Conditions: rat, gh3-tre-luc cells

Row | Compound | CC50 at 24 h (AC50 (uM) modified / 1000) | other results
1 | CO[C@@]12[C@H](COC(N)=O)C3=C(C(=O)C(C)=C(N)C3=O)N1C[C@@H]1N[C@@H]12 [Mitomycin C] | 2.52 µM | –
2 | CCC(C)(O)CCC=C(C)C (stereo not drawn) [3,7-Dimethyloct-6-en-3-ol] | > 90 µM | –
3 | CN1C(=O)CC[C@H]1c1cccnc1 [Cotinine] | > 90 µM | –
4 | Nc1cc(-c2ccncc2)c[nH]c1=O [Amrinone] | > 90 µM | –
5 | O=C(O)CN(CC(=O)O)CC(=O)O [Nitrilotriacetic acid] | > 90 µM | –
6 | O=C1NC(=O)c2ccccc21 [Potassium 1,3-dioxo-1,3-dihydroisoindol-2-ide] | > 90 µM | –
7 | O=Cc1ccc(CO)o1 [5-(Hydroxymethyl)-2-furfural] | > 90 µM | –
8 | CC(CCC(=O)O)C(=O)O (stereo not drawn) [2-Methylpentanedioic acid] | > 90 µM | –
9 | c1ccc2cc3ccccc3cc2c1 [Anthracene] | > 90 µM | –
10 | Cc1cc2c(C(C)C)c(O)c(O)c(C=O)c2c(O)c1-c1c(C)cc2c(C(C)C)c(O)c(O)c(C=O)c2c1O [Gossypol] | 8.84 µM | –
11 | C=C(CC(=O)O)C(=O)O [Methylenebutanedioic acid] | > 90 µM | –
12 | O=C(CC(=O)C(F)(F)F)c1ccccc1 [4,4,4-Trifluoro-1-phenyl-1,3-butanedione] | > 90 µM | –
13 | CCCc1ccccc1O [2-Propylphenol] | > 90 µM | –
14 | CC(C)OC(=O)c1cc2c(OCC(O)CNC(C)(C)C)cccc2[nH]1 (stereo not drawn) [SDZ 21009] | 36.9 µM | –
15 | CCOC(=O)[C@H](CCc1ccccc1)N[C@@H](C)C(=O)N(CC(=O)O)C1Cc2ccccc2C1 [Delapril hydrochloride] | > 50 µM | –
16 | O=C(O)c1cc(N=Nc2ccc([N+](=O)[O-])cc2)ccc1O [Alizarin Yellow R] | 58 µM | –
17 | CC[C@H](C)COC(=O)/C=C/c1ccc(N=Cc2ccc(OC)cc2)cc1 [(+)-2-Methylbutyl-4-methoxybenzyladine-4'-aminocyannate] | > 90 µM | –
18 | COc1cccc(N(C)C(=S)Oc2ccc3c(c2)CCCC3)n1 [Liranaftate] | > 50 µM | –
19 | C=C/C(C)=C/C/C=C(\C)CCC=C(C)C [alpha-Farnesene] | > 90 µM | –
20 | CCOc1ccc(NC(C)=O)cc1N [3-Amino-4-ethoxyacetanilide] | > 90 µM | –
21 | CNC(=O)Oc1ccccc1C(=O)Nc1ccccc1 [Anilamate] | – | CC50 at 24 h (AC50 (uM) modified / 1000, Tox21_110001=Tox21_111928, viability, 1 nM T3 present, 24 h): > 50 µM
22 | Clc1ccc(-c2ccc(Cl)c(Cl)c2Cl)c(Cl)c1Cl [Aroclor 1260] | > 90 µM | –
23 | COc1ccc(/C=C/C(=O)Nc2ccccc2C(=O)O)cc1OC [Tranilast] | > 50 µM | –
24 | C=C(C)C(=O)OCCOP(=O)(O)OCCOC(=O)C(=C)C [Bis(methacryloyloxyethyl) hydrogen phosphate] | > 90 µM | –
25 | Nc1cnn(-c2ccccc2)c(=O)c1Cl [Chloridazon] | > 90 µM | –

Row | Compound | CC50 at 24 h (AC50 (uM) modified / 1000) | other results
26 | CC1=CC(C)(C)Nc2ccccc21 [1,2-Dihydro-2,2,4-trimethylquinoline] | > 90 µM | –
27 | CN(C)CCC#N [3-Dimethylaminopropionitrile] | > 90 µM | –
28 | CC/C=C\CCO [(Z)-3-Hexen-1-ol] | > 90 µM | –
29 | Nc1ccc(C(=O)Nc2ccccc2N)cc1 [Dianiline] | 14.1 µM | –
30 | CC(=Cc1ccccc1)[N+](=O)[O-] [(2-Nitro-1-propenyl)benzene] | 10.3 µM | –
31 | C/C=C/C(=O)CC [4-Hexen-3-one] | > 20 µM | –
32 | CN1C(CCl)Nc2cc(Cl)c(S(N)(=O)=O)cc2S1(=O)=O (stereo not drawn) [Methyclothiazide] | > 50 µM | –
33 | O=c1[nH]c(=O)c2[nH]c(=O)[nH]c2[nH]1 [Sodium urate] | > 50 µM | –
34 | CC(Oc1ccc(Cl)cc1Cl)C(=O)O (stereo not drawn) [Dichlorprop] | > 90 µM | –
35 | N#Cc1nc(Cl)c(Cl)c(Cl)c1Cl [3,4,5,6-Tetrachloropyridine-2-carbonitrile] | 3 µM | –
36 | CO[C@]12C[C@@H](COC(=O)c3cncc(Br)c3)CN(C)[C@@H]1Cc1cn(C)c3cccc2c13 [Nicergoline] | 16.4 µM | –
37 | CO[C@@]1(NC(=O)CSC(F)F)C(=O)N2C(C(=O)O)=C(CSc3nnnn3CCO)CO[C@@H]21 [Flomoxef] | > 50 µM | –
38 | O=C(O)C(c1ccc(Cl)cc1)c1ccc(Cl)cc1 [p,p'-DDA] | > 90 µM | –
39 | N[C@@H](Cc1ccccc1)C(=O)O [Phenylalanine] | > 50 µM | –
40 | N#CC(CCc1ccc(Cl)cc1)(Cn1cncn1)c1ccccc1 (stereo not drawn) [Fenbuconazole] | 49.1 µM | –
41 | CC1=C(CC(=O)O)c2cc(F)ccc2/C1=C\c1ccc([S+](C)[O-])cc1 (stereo not drawn) [Sulindac] | > 90 µM | –
42 | CC1CCCC1 [Methylcyclopentane] | > 90 µM | –
43 | CO/N=C(\C(=O)N[C@@H]1C(=O)N2C(C(=O)[O-])=C(C[n+]3ccn4ncccc43)CS[C@H]12)c1nsc(N)n1 [Cefozopran hydrochloride] | > 50 µM | –
44 | CC(=O)Oc1c(C)c(C)c2c(c1C)CC[C@@](C)(CCC[C@H](C)CCC[C@H](C)CCCC(C)C)O2 (racemic) [dl-alpha-Tocopheryl acetate] | > 90 µM | –
45 | C[N+]1(C)CCN(CC(O)(c2ccccc2)C2CCCCC2)CC1 (stereo not drawn) [Hexocyclium] | > 50 µM | –
46 | O=[N+]([O-])c1ccc(O)c([N+](=O)[O-])c1 [2,4-Dinitrophenol] | – | CC50 at 24 h (AC50 (uM) modified / 1000, Tox21_110001=Tox21_201462, viability, 1 nM T3 present, 24 h): > 90 µM; CC50 at 24 h (AC50 (uM) modified / 1000, Tox21_110001=Tox21_300030, viability, 1 nM T3 present, 24 h): 56.2 µM
47 | CCCCCCCCCCCC(=O)OC [Methyl dodecanoate] | > 90 µM | –
48 | CCC(C)=O [Methyl ethyl ketone] | > 90 µM | –
49 | CC(C)CC(O)Cc1ccccc1 (stereo not drawn) [4-Methyl-1-phenyl-2-pentanol] | > 90 µM | –
50 | Brc1nc2ccccc2s1 [2-Bromobenzothiazole] | > 90 µM | –

Row | Compound | CC50 at 24 h (AC50 (uM) modified / 1000) | other results
51 | O=C(O[C@H]1CN2CCC1CC2)N1CCc2ccccc2[C@@H]1c1ccccc1 [Solifenacin hydrochloride] | 19.6 µM | –
52 | CCOP(=O)(N=C1SCCS1)OCC [Phosfolan] | – | CC50 at 24 h (AC50 (uM) modified / 1000, Tox21_110001=Tox21_301905, viability, 1 nM T3 present, 24 h): > 90 µM
53 | CCOC(=O)NC(=S)Nc1ccccc1NC(=S)NC(=O)OCC [Thiophanate] | > 90 µM | –
54 | CNCCCC1c2ccccc2C=Cc2ccccc21 [Protriptyline hydrochloride] | 7.1 µM | –
55 | CCS(=O)(=O)C(C)(C)S(=O)(=O)CC [Sulfonmethane] | – | CC50 at 24 h (AC50 (uM) modified / 1000, Tox21_110001=Tox21_112150, viability, 1 nM T3 present, 24 h): > 50 µM
56 | CC(C)C(=O)c1c(C(C)C)nn2ccccc12 [Ibudilast] | > 50 µM | –
57 | CCNc1ccccc1 [N-Ethylaniline] | > 90 µM | –
58 | Nc1cc[nH]c(=O)n1 [Cytosine] | > 90 µM | –
59 | CCCc1c2oc(C(=O)O)cc(=O)c2cc2c(=O)cc(C(=O)O)n(CC)c12 [Nedocromil] | > 50 µM | –
60 | CCc1cc(S(=O)(=O)O)c2cc(C(C)C)cccc1-2 [Egualen sodium] | > 50 µM | –
61 | CCOP(=O)(OCC)Oc1cc(C)nc(C(C)C)n1 [Diazoxon] | – | CC50 at 24 h (AC50 (uM) modified / 1000, Tox21_110001=Tox21_301125, viability, 1 nM T3 present, 24 h): > 90 µM
62 | CC1CCC(=O)O1 (stereo not drawn) [4-Pentanolide] | – | CC50 at 24 h (AC50 (uM) modified / 1000, Tox21_110001=Tox21_302624, viability, 1 nM T3 present, 24 h): > 90 µM
63 | CNC(C)=O [N-Methylacetamide] | > 90 µM | –
64 | CCCCCCCCCOC(=O)c1ccccc1C(=O)OCCCCCCCCC [Dinonyl phthalate] | > 90 µM | –
65 | Clc1cc(Cl)c(OCC#CI)cc1Cl [Haloprogin] | 11.9 µM | –
66 | CC[C@H]1OC(=O)[C@H](C)[C@@H](O[C@H]2C[C@@](C)(OC)[C@@H](O)[C@H](C)O2)[C@H](C)[C@@H](O[C@@H]2O[C@H](C)C[C@H](N(C)C)[C@H]2O)[C@](C)(OC)C[C@@H](C)C(=O)[C@H](C)[C@@H](O)[C@]1(C)O [Clarithromycin] | > 90 µM | –
67 | Cc1nc2ccccc2c(=O)o1 [2-Methyl-4H,3,1-benzoxazin-4-one] | > 90 µM | –
68 | N#CSCSC#N [Methylene bis(thiocyanate)] | – | CC50 at 24 h (AC50 (uM) modified / 1000, Tox21_110001=Tox21_202325, viability, 1 nM T3 present, 24 h): 3.41 µM; CC50 at 24 h (AC50 (uM) modified / 1000, Tox21_110001=Tox21_301058, viability, 1 nM T3 present, 24 h): 5.63 µM
69 | CCCSP(=S)(OCC)Oc1ccc(Cl)cc1Cl (stereo not drawn) [Prothiofos] | – | CC50 at 24 h (AC50 (uM) modified / 1000, Tox21_110001=Tox21_301219, viability, 1 nM T3 present, 24 h): > 90 µM
70 | C=C(C)c1ccccc1 [alpha-Methylstyrene] | > 90 µM | –
71 | CC(c1ccc(O)cc1)(c1ccc(O)cc1)c1ccc(O)cc1 [4,4',4"-Ethane-1,1,1-triyltriphenol] | 55.5 µM | –
72 | Oc1cccc(O)c1 [Resorcinol] | > 90 µM | –
73 | CCC(C)c1ccccc1O (stereo not drawn) [2-(Butan-2-yl)phenol] | > 90 µM | –
